Tested on: SW403 tumor (Human colorectal cancer, 35G>T)
Test: SW403 tumor growth in vivo, combination with Capecitabine
Design: species or system mice
Settings: Capecitabine 200 μg once a week
Procedure: It was also evaluated whether targeting mutant KRAS in combination with a chemotherapeutic agent can suppress tumor growth in vivo when administered intravenously using ADGN-100-Hy3 nanoparticles. Female nude mice 6-weeks of age were injected with either Human pancreatic carcinoma cell (Panc1-Luc) containing the 35G>A mutation, or Human colorectal cancer cells (SW403) containing 35G>T KRAS mutation (20×10^6 cells in 200 μl PBS). The animals were kept under pathogen-free conditions and fed and watered ad libitum, in cages of 2 to 4 animals (in compliance with recommended area surface/animal), in a dedicated room with a 12 h/12 h light/dark cycle at a constant temperature of 22° C. A period of 2 weeks was allowed for tumor development before the beginning of the experiments […]
Animal were injected ADGN/mRNA complex on day 1 and day 7. […] PANC-1 tumor size was evaluated by bioluminescence imaging. […] Semi-quantitative data of luciferase-positive tumor cell signals were obtained using the manufacturer's software (Living Image; PerkinElmer). Results were expressed as photons/second (photons/s). […] Results were then expressed as values relative to day 0. SW403 tumor size was evaluated every 7 days using caliper. Results were then expressed as values relative to day 0. […]

CCCCCOC(=O)Nc1nc(=O)n([C@@H]2O[C@H](C)[C@@H](O)[C@H]2O)cc1F [Capecitabine]
reduction of SW403 tumor growth: 38%

Reference: patent US20230167437A1, “COMPOSITIONS FOR TREATING CANCER WITH KRAS MUTATIONS AND USES THEREOF” (Aadigen, LLC, priority 2020, published 2023)
